Experimental data: patent US20180318300A1, “TREATMENT OF AUTOIMMUNE DISEASE” (MingSight Pharmaceuticals, Inc., priority 2015, published 2018)
Marks after values point to notes of the source that are not given here.

Experiments:
[1] = test system: experimental autoimmune encephalitis (EAE) model; assay: Experimental autoimmune encephalitis (EAE) model in Lewis rats; assay type: in vivo; settings: for EAE incidence (%): from Day 8
Protocol: Compound A was tested in the experimental autoimmune encephalitis (EAE) model in Lewis rats. EAE was induced by MBP69-88/CFA immunization and pertussis toxin injection in Lewis rats (Hashim, et al., 1986, J Neurosci Res.; 16(3):467-78). Compound A was prepared as an oral suspension and dosed orally, twice per day (BID) at three doses, 7.5 and 15 and 30 mg/kg for total daily doses of 15, 30 and 60 mg/kg. The efficacy was compared to animals that received the positive control FTY720 (also known as fingolimod; a compound approved for use in humans) dosed once per day at a dose of 0.5 mg/kg.

[2] = test system: experimental autoimmune uveitis; assay: Lewis rat model of experimental autoimmune uveitis; assay type: in vivo; settings: oral, once per day, 10 and 20 mg/kg
Protocol: The efficacy was compared to animals that received the positive control cyclosporine dosed at 25 mg/kg. […] Efficacy in the model was assessed by clinical grading and by assessment of the sections of the eyes prepared for histology at the completion of the experiment.

PKCβ = PKCβ (Homo sapiens, UniProt P05771); assay: pSHP2 (PKCβ cell assay); assay type: cell-based
MRL/lpr lupus model = assay: MRL/lpr lupus model; assay type: in vivo
Interleukin-8 release = assay: Interleukin-8 release; assay type: cell-based
Text: (§1) The methods for these determinations have been described (Grant, et al. 2010, Eur J Pharmacol. 627:16-25).

[3] = test system: MRL/lpr mouse model of lupus; assay: MRL/lpr mouse model of lupus; assay type: in vivo, Female MRL/MpJ-Tnfrsf6lpr/J mice
Protocol: Compound A was tested for efficacy in the MRL/lpr mouse model of lupus (Shlomchik M J, et al, 1994, J Exp Med 180:1295-1306; Cohen P L and Eisenberg R. A. 1991, Annu Rev Immunol, 9:243-69; Honigberg, L. A., et al., 2010, Proc Natl Acad Sci USA. 107:13075-80). Female MRL/MpJ-Tnfrsf6lpr/J mice of 8-9 weeks of age were used in the study. When the mice reached 12 weeks of age, they were randomized by animal body weight into one of the treatment groups or an untreated control group. Treatments was initiated after randomization and continued for 12 weeks. Starting on study week 1, and then every week thereafter, urine from each animal was tested for proteinuria using the Clinitech Multistick test strip (Bayer). The animals were observed daily for significant clinical signs, moribundity and mortality. Scoring of lymphadenopathy (cervical, brachial, and inguinal) for all animals was recorded every week once lesions become apparent in 50% of the animals in vehicle-treated group.
Compound A was prepared as an oral suspension. Initial dosing was completed at two dose levels, 60 and 90 mg/kg, BID for a total dose of 120 and 180 mg/kg/day. […] Dosing for the final 8 weeks was at 180 and 240 mg/kg/day.

[4] = Separate pharmacokinetics experiments in mice; assay type: in vivo; settings: 60 mg/kg dose, oral suspension
Human PKC delta = Human PKC delta (Homo sapiens, UniProt Q05655); assay: In vitro PKC inhibition assay, PKC delta; assay type: biochemical
Text: as §1

[5] = treatment of increased spleen weight; assay type: in vivo; settings: FIG. 10
[6] = test system: rat model of encephalitis; assay: rat model of encephalitis; assay type: in vivo; settings: FIG. 11
[7] = 120 mg/kg p.o. BID (60 mg/kg BID for the initial 4 weeks)
[8] = both doses (180 and 240 mg/kg/day for the final 8 weeks)

Chain of PKCβ (P05771 whole entry, species assumed): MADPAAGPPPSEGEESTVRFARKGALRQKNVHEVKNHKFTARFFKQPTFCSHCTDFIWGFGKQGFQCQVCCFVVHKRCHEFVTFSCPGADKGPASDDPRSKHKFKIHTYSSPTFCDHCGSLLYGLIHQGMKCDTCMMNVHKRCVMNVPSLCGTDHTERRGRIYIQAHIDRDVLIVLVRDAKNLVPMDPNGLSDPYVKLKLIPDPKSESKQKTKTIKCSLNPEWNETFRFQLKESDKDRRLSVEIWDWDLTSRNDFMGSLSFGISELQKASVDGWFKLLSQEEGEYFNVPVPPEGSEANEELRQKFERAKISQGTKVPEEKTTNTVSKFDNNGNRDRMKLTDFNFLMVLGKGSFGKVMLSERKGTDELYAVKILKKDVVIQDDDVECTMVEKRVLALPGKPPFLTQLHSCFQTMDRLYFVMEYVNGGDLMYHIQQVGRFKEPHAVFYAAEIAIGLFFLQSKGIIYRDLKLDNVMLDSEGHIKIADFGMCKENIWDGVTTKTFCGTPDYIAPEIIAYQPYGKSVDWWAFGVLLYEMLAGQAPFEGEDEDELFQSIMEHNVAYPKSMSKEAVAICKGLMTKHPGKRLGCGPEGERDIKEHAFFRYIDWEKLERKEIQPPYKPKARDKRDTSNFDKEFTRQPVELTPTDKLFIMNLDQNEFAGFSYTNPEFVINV
Chain of Human PKC delta (Q05655 whole entry): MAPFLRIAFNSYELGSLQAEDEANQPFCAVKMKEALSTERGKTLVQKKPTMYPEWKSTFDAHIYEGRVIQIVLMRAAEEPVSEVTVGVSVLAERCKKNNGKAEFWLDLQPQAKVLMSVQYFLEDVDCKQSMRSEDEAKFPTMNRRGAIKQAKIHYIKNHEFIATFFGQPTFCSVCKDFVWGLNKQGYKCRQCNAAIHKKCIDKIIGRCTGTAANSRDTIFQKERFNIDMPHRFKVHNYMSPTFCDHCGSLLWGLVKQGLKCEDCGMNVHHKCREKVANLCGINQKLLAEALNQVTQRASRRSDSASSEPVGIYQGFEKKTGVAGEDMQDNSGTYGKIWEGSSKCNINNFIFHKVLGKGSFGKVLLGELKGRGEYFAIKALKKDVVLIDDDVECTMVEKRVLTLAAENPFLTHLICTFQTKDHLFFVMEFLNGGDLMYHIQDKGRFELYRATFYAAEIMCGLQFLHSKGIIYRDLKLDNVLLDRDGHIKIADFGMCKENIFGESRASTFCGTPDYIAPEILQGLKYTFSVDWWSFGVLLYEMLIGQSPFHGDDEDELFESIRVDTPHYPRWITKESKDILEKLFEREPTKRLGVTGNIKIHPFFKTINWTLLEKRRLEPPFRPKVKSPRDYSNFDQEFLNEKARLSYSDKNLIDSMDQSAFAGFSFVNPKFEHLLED

CCCCCCCCc1ccc(CCC(N)(CO)CO)cc1 [FTY720, fingolimod, reference compound]
Mean day of onset +/− SEM (sick rats) ([1]; 0.5 mg/kg p.o. QD): 8.0 +/− 0.3
Median day of onset (all rats) ([1]; 0.5 mg/kg p.o. QD): 8.0
EAE incidence (%) ([1]; 0.5 mg/kg p.o. QD): 87.5%

Cc1ncc(F)c(Nc2n[nH]c3c2CN(C(=O)N2C[C@@H](C)N(CC4CCOCC4)C[C@@H]2C)C3(C)C)n1 [compound A, 5-{[(2S,5R)-2,5-dimethyl-4-(tetrahydro-2H-pyran-4-ylmethyl)piperazin-1-yl]carbonyl}-N-(5-fluoro-2-methylpyrimidin-4-yl)-6,6-dimethyl-1,4,5,6-tetrahydropyrrolo[3,4-c]pyrazol-3-amine]
Mean day of onset +/− SEM (sick rats) ([1]; 7.5 mg/kg p.o. BID): 9.0 +/− 0.5
Median day of onset (all rats) ([1]; 7.5 mg/kg p.o. BID): 9.0
EAE incidence (%) ([1]; 7.5 mg/kg p.o. BID): 100.0%
Mean day of onset +/− SEM (sick rats) ([1]; 15 mg/kg p.o. BID): 8.5 +/− 0.4
Median day of onset (all rats) ([1]; 15 mg/kg p.o. BID): 8.0
EAE incidence (%) ([1]; 15 mg/kg p.o. BID): 100.0%
Mean day of onset +/− SEM (sick rats) ([1]; 30 mg/kg p.o. BID): 9.0 +/− 0.9
Median day of onset (all rats) ([1]; 30 mg/kg p.o. BID): 13.5
EAE incidence (%) ([1]; 30 mg/kg p.o. BID, p<0.05 vs. vehicle): 50.0%*
Clinical score in the EAE model ([1]; 7.5, 15 and 30 mg/kg BID): dose-dependent decrease
End EAE severity compared to the vehicle control group (FIG. 11) ([1]; 15 and 30 mg/kg BID): significantly reduced
Maximum EAE severity compared to the vehicle control group (FIG. 11) ([1]; 15 and 30 mg/kg BID): significantly reduced
Clinical score compared with fingolimod ([1]; highest dose employed (30 mg/kg BID) vs fingolimod 0.5 mg/kg QD): appeared superior to fingolimod
Reduction in clinical scores (FIG. 12) [2]: greater than 50%
Reduction in histopathological scores (FIG. 13) [2]: greater than 75%
IC50 (PKCβ): 9.8 nM
urine score (MRL/lpr lupus model; FIG. 7): reducing urine score
lymphadenopathy (MRL/lpr lupus model; FIG. 8): reducing lymphadenopathy
splenomegaly (MRL/lpr lupus model; FIG. 9): reducing splenomegaly
IC50 (Interleukin-8 release): 39 nM
BUN/Creatinine ([3]; 90 mg/kg p.o. BID): 163.9
Creatinine ([3]; 90 mg/kg p.o. BID): 0.26
BUN ([3]; 90 mg/kg p.o. BID, 12 weeks of treatment): 52.4 mg/dL
BUN [3, 7]: 29.5 mg/dL
BUN/Creatinine [3, 7]: 147.7
Creatinine [3, 7]: 0.20
Lymphadenopathy score (FIG. 8) [3, 8]: reduction
Mean absolute spleen weight (FIG. 9) [3, 8]: reduction
Mean lymph node weight (FIG. 10) [3, 8]: reduction
Protein in the urine (FIG. 7) [3, 8]: significant reduction
Exposure of compound A in mice [4]: unexpectedly low and insufficient exposure
Inhibition of PKC delta (in words) (Human PKC delta): does not significantly inhibit
increased spleen weight [5]: efficacy
efficacy in a rat model of encephalitis [6]: efficacy
